According to ChEMBL document CHEMBL1201862, “PubChem BioAssay data set” (2004):
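These data come from cells grown in 96-well plates and exposed to compound for 48 hours at five concentrations. GI50 = concentration required for 50% inhibition of growth.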 Calls of active or inactive are those of the source. Cut-off read from the data, not from the text of the source: active = GI50 up to about 1.1 µM and inactive = higher.

How the values were obtained:
Test in all cases: DTP human tumour cell line panel, 48 h
HOP-92 = tested on: HOP-92
Malme-3M = tested on: Malme-3M
IGROV-1 = tested on: IGROV-1
CCRF-CEM = tested on: CCRF-CEM
SW-620 = tested on: SW-620
NCI-H522 = tested on: NCI-H522
HL-60 = tested on: HL-60
U-251 = tested on: U-251
Hs-578T = tested on: Hs-578T
SNB-19 = tested on: SNB-19
SF-268 = tested on: SF-268
786-0 = tested on: 786-0
HCC 2998 = tested on: HCC 2998
OVCAR-8 = tested on: OVCAR-8
SNB-75 = tested on: SNB-75
A498 = tested on: A498
DU-145 = tested on: DU-145
COLO 205 = tested on: COLO 205
KM12 = tested on: KM12
OVCAR-5 = tested on: OVCAR-5

Structure (SMILES) | GI50 (HOP-92) | GI50 (Malme-3M) | GI50 (IGROV-1) | GI50 (CCRF-CEM) | GI50 (SW-620) | GI50 (NCI-H522) | GI50 (HL-60) | GI50 (U-251) | GI50 (Hs-578T) | GI50 (SNB-19) | GI50 (SF-268) | GI50 (786-0) | GI50 (HCC 2998) | GI50 (OVCAR-8) | GI50 (SNB-75) | GI50 (A498) | GI50 (DU-145) | GI50 (COLO 205) | GI50 (KM12) | GI50 (OVCAR-5)
O=C(CCSC(CC(=O)c1ccc(Cl)cc1)c1ccc(Cl)cc1)Nc1ccc(Cl)cc1 (centres undefined) | 17.6 µM (inactive) | 16.9 µM (inactive) | 14.9 µM (inactive) | 2.09 µM (inactive) | 2.88 µM (inactive) | 14.5 µM (inactive) | 4.1 µM (inactive) | 9.06 µM (inactive) | 26.3 µM (inactive) | 13.7 µM (inactive) | 15.2 µM (inactive) | 13.8 µM (inactive) | 14 µM (inactive) | 14.9 µM (inactive) | 21.8 µM (inactive) | 12.4 µM (inactive) | 14 µM (inactive) | 18.6 µM (inactive) | 3.21 µM (inactive) | 16.4 µM (inactive)
Oc1ccc(-c2cc(-c3cc(-c4ccc(O)cc4)no3)on2)cc1 | > 100 µM (inactive) | 46.1 µM (inactive) | 43.7 µM (inactive) | 0.873 µM (active) | > 30.3 µM (inactive) | 19.7 µM (inactive) | 3.36 µM (inactive) | 39.9 µM (inactive) | > 100 µM (inactive) | > 100 µM (inactive) | 41.2 µM (inactive) | > 100 µM (inactive) | > 63.4 µM (inactive) | > 100 µM (inactive) | > 52.8 µM (inactive) | > 100 µM (inactive) | 5.09 µM (inactive) | > 100 µM (inactive) | 11.8 µM (inactive) | > 53.3 µM (inactive)
Cc1ccc2c(c1)C(C1Cc3cccc(C)c3C1=O)OC2=O (centres undefined) | > 100 µM (inactive) | > 100 µM (inactive) | > 100 µM (inactive) | > 100 µM (inactive) | > 100 µM (inactive) | > 100 µM (inactive) | 35.8 µM (inactive) | > 100 µM (inactive) | > 100 µM (inactive) | > 100 µM (inactive) | > 100 µM (inactive) | > 100 µM (inactive) | > 100 µM (inactive) | > 100 µM (inactive) | 81.5 µM (inactive) | 46.2 µM (inactive) | > 100 µM (inactive) | > 100 µM (inactive) | 96.2 µM (inactive) | > 100 µM (inactive)
O=C(O)/C(O)=C\C(=O)c1ccc(Br)cc1 | > 100 µM (inactive) | > 100 µM (inactive) | > 100 µM (inactive) | 68.7 µM (inactive) | > 100 µM (inactive) | > 100 µM (inactive) | > 100 µM (inactive) | > 100 µM (inactive) | > 100 µM (inactive) | > 100 µM (inactive) | > 100 µM (inactive) | > 100 µM (inactive) | > 100 µM (inactive) | > 100 µM (inactive) | > 100 µM (inactive) | > 100 µM (inactive) | > 100 µM (inactive) | > 100 µM (inactive) | > 100 µM (inactive) | > 100 µM (inactive)
CC1=NN(C(=O)CC(=O)Nc2cccc(Cl)c2)C(=O)C1/N=N/c1ccc(C(=O)O)cc1 (centres undefined) | 27.7 µM (inactive) | > 100 µM (inactive) | > 100 µM (inactive) | 48.4 µM (inactive) | > 100 µM (inactive) | > 100 µM (inactive) | > 100 µM (inactive) | > 100 µM (inactive) | > 100 µM (inactive) | > 100 µM (inactive) | > 100 µM (inactive) | > 100 µM (inactive) | > 100 µM (inactive) | > 100 µM (inactive) | 52.1 µM (inactive) | > 100 µM (inactive) | > 100 µM (inactive) | > 100 µM (inactive) | > 100 µM (inactive) | > 100 µM (inactive)
CCCCCCCCCCC1OC([C@@H](O)CC[C@H](O)C2CC[C@@H](CCCCCCCC(O)CC3=CC(C)OC3=O)O2)CCC1O (some centres undefined) | 8.95 µM (inactive) | 14 µM (inactive) | 2.61 µM (inactive) | 5.97 µM (inactive) | > 17.9 µM (inactive) | 5.89 µM (inactive) | 2.74 µM (inactive) | 14.4 µM (inactive) | 2.68 µM (inactive) | 9.46 µM (inactive) | 2.35 µM (inactive) | 11.5 µM (inactive) | 8 µM (inactive) | 3.79 µM (inactive) | 3.41 µM (inactive) | > 14.9 µM (inactive) | 14.6 µM (inactive) | 6.85 µM (inactive) | 2.58 µM (inactive) | > 15 µM (inactive)
O=C(/C=C\Nc1ccccc1O)C(Cl)(Cl)Cl | 70.5 µM (inactive) | 82 µM (inactive) | 43.4 µM (inactive) | 28.1 µM (inactive) | > 100 µM (inactive) | 22.6 µM (inactive) | 21.8 µM (inactive) | 26.9 µM (inactive) | 69 µM (inactive) | 76.2 µM (inactive) | > 100 µM (inactive) | 22.8 µM (inactive) | 26.3 µM (inactive) | 35.9 µM (inactive) | 30.3 µM (inactive) | 35.6 µM (inactive) | 45.8 µM (inactive) | 48.3 µM (inactive) | 33.7 µM (inactive) | 77.4 µM (inactive)
CCOP(=O)(OCC)/C(C#N)=C/c1cnc[nH]1 | > 100 µM (inactive) | > 100 µM (inactive) | > 100 µM (inactive) | > 100 µM (inactive) | > 100 µM (inactive) | > 100 µM (inactive) | > 100 µM (inactive) | > 100 µM (inactive) | > 100 µM (inactive) | > 100 µM (inactive) | > 100 µM (inactive) | > 100 µM (inactive) | > 100 µM (inactive) | > 100 µM (inactive) | > 100 µM (inactive) | > 100 µM (inactive) | > 100 µM (inactive) | > 100 µM (inactive) | > 100 µM (inactive) | > 100 µM (inactive)
CC1=CC(C)C(C)N(CCNS(=O)(=O)c2ccc(C)cc2)c2ccccc21 (centres undefined) | 18.8 µM (inactive) | 14.1 µM (inactive) | 17 µM (inactive) | 13 µM (inactive) | > 10 µM (inactive) | 18.2 µM (inactive) | 14 µM (inactive) | 16.5 µM (inactive) | 12.9 µM (inactive) | > 31.6 µM (inactive) | 13 µM (inactive) | 14.2 µM (inactive) | 16.4 µM (inactive) | 14.6 µM (inactive) | 15.7 µM (inactive) | 14.6 µM (inactive) | 11.1 µM (inactive) | 12.8 µM (inactive) | 19.1 µM (inactive) | 18.7 µM (inactive)
COC(=O)c1cc(C)ccc1C1CN=NC12Cc1ccc(C)cc1C2=O (centres undefined) | 19.1 µM (inactive) | 25.1 µM (inactive) | 63.4 µM (inactive) | 32.7 µM (inactive) | 53.2 µM (inactive) | 32.6 µM (inactive) | 13 µM (inactive) | 44.7 µM (inactive) | 45.6 µM (inactive) | 55.2 µM (inactive) | 32.7 µM (inactive) | > 100 µM (inactive) | 31.4 µM (inactive) | 56.4 µM (inactive) | 30.3 µM (inactive) | 29.5 µM (inactive) | 82.8 µM (inactive) | 15.8 µM (inactive) | 29 µM (inactive) | > 100 µM (inactive)
Cn1c([C@H](C#N)C(=O)c2cc(O)ccc2[N+](=O)[O-])nc2ccccc21 | > 100 µM (inactive) | 17.2 µM (inactive) | > 100 µM (inactive) | 10.6 µM (inactive) | – | > 100 µM (inactive) | > 100 µM (inactive) | > 100 µM (inactive) | > 100 µM (inactive) | > 100 µM (inactive) | > 100 µM (inactive) | > 100 µM (inactive) | > 100 µM (inactive) | > 100 µM (inactive) | > 100 µM (inactive) | > 100 µM (inactive) | > 100 µM (inactive) | > 100 µM (inactive) | > 100 µM (inactive) | > 100 µM (inactive)
Cc1ccc(CNNC(=O)c2cc[n+]([BH2-]C#N)cc2)cc1 | > 100 µM (inactive) | > 100 µM (inactive) | > 100 µM (inactive) | 26.3 µM (inactive) | > 100 µM (inactive) | 95.5 µM (inactive) | 83.8 µM (inactive) | > 100 µM (inactive) | 48.5 µM (inactive) | > 100 µM (inactive) | > 100 µM (inactive) | > 100 µM (inactive) | > 100 µM (inactive) | > 100 µM (inactive) | 72.6 µM (inactive) | 15.6 µM (inactive) | > 100 µM (inactive) | > 100 µM (inactive) | > 100 µM (inactive) | > 100 µM (inactive)
Oc1cccc2ccc(SSc3ccc4cccc(O)c4n3)nc12 | 23 µM (inactive) | 16 µM (inactive) | 24.7 µM (inactive) | 3.36 µM (inactive) | 25.4 µM (inactive) | 15.8 µM (inactive) | 22.8 µM (inactive) | 16.4 µM (inactive) | 31.4 µM (inactive) | > 100 µM (inactive) | 25.3 µM (inactive) | 18.2 µM (inactive) | 5.56 µM (inactive) | 19.1 µM (inactive) | 14.7 µM (inactive) | 19.2 µM (inactive) | 73.1 µM (inactive) | 18.8 µM (inactive) | 13.7 µM (inactive) | 19.4 µM (inactive)
c1csc(-c2nccc3c2[nH]c2ccccc23)c1 | 22.3 µM (inactive) | 24.2 µM (inactive) | 18.4 µM (inactive) | 21.2 µM (inactive) | 21 µM (inactive) | 15.8 µM (inactive) | 29.3 µM (inactive) | 25.4 µM (inactive) | 46 µM (inactive) | 27.7 µM (inactive) | 27 µM (inactive) | 18.1 µM (inactive) | 21.8 µM (inactive) | 20.5 µM (inactive) | 14.1 µM (inactive) | 15.3 µM (inactive) | 27.9 µM (inactive) | 14.8 µM (inactive) | 19.5 µM (inactive) | 28.2 µM (inactive)
